Patent US7524646B2 (priority 2001, dated 2009)

Assays:
Assay type in all cases: cell-based, E. coli
[1] = tested on: Δilv strain CU505 (wild-type valS); assay: Amino acid composition of total protein after growth with Abu, wild-type valS; conditions: WT + Abu (0.2 mM); 24 hours; relative to WT control that lacked Abu
Description: (§1) We anticipated that ValRS mutants that misincorporated Cys would also misincorporate Abu. […] Whole cell protein was isolated from strain CU505 grown in the presence of Abu (0.2 mM), in the presence or absence of the valS:T222P allele in the host cell. […] Finally, the valine-rich yeast protein AlaXp (swissprot:P53960) was overexpressed and purified from strains containing the valS:T222P allele grown in the presence of Abu. The protein samples were digested by trypsin and analyzed by mass spectrometry. […] For a given peptide the degree of misincorporation ranged between 9.5% and 18% per Val codon. Sequencing of several Abu-containing peptides confirmed that Abu was specifically misincorporated into positions designated by Val codons.
(§2) Table 2. Incorporation of Abu into cells bearing wild-type and T222P mutant alleles of valS. Cultures of the Δilv strain CU505 (19) and the isogenic strain β5498 carrying the valS:T222P allele were grown overnight in minimal medium (27) with Ile-Leu (0.3 mM) and limiting valine (0.04 mM Ile-Val), diluted (1/2), and adjusted with Ile-Val (0.02 mM) with or without Abu (0.2 mM). After 24 hours of growth, total protein was extracted as follows. Cells were first harvested by centrifugation and washed in cold 10% trichloroacetic acid (TCA, 1/2 of the culture volume). Cells were then re-centrifuged at 4000×g for 10 min, resuspended in cold 10% TCA (1/10 of the culture volume) and centrifuged again. The washed cells were resuspended in […], heated at 95° C. for 30 minutes and centrifuged (4000×g, 10 min). The precipitate was washed three times with cold acetone and dissolved in 50 mM NH4HCO3. Proteins were hydrolyzed in 6 N HCl-0.2% phenol at 110C. for 20 h in sealed tubes. Norleucine was added as an internal standard. Aliquots of the hydrolysates were analyzed on a Beckman 6300 Amino Acid Analyzer. Amino acids were quantified by appropriate standards and values are presented relative the wild-type (WT) control that lacked Abu.

[2] = tested on: strain β5498 carrying the valS:T222P allele; assay: Amino acid composition of total protein after growth with Abu, valS:T222P; conditions: for valine in cellular protein replaced by Abu: whole cell protein, strain harboring the mutant allele, Abu 0.2 mM
Description: as §1, §2

[3] = tested on: strain β5456 (valS:T222P); assay: Growth on Abu gradient plates, valS:T222P strain; conditions: gradient plate, 50 μl 0.1 M, 2 days at 37° C.
Description: FIG. 1C: Photographs showing the results of growth of a strain carrying the valS:T222P allele in the presence of L-threonine or Abu. Minimal medium plates supplemented with thymidine (0.3 mM) were pretreated with amino acid solutions by streaking either with Thr (50 μl (0.2 M)) or Abu (50 μl (0.1 M)) vertically along the diameter of the plate to create an amino acid gradient. Mutant (β5456) and wild-type (β5419 (thyA::erm+ ΔnrdD::kan+ pTS13 (bla+ thyA: 146GUA)) strains were then streaked horizontally across the plates and incubated for 2 days at 37° C.
as §1

valine auxotroph CU505 = assay: Growth of valine auxotroph with limiting valine and increasing Abu, wild-type valS; conditions: up to 1 mM Abu; OD 600 nm, 24 h, 30° C.
Description: (§3) FIG. 3. A graph showing the results of growth of the valine auxotroph CU505 in the presence of a limiting supply of valine and increasing concentrations of Abu. Overnight cultures of Δilv auxotrophs containing the WT valS (É) or the mutant valS:T222P allele (J) and grown in MS glucose medium with limiting valine (0.04 mM Ile-Val. 0.3 mM Ile-Leu) were diluted 1/1, the Val concentration was adjusted to 0.02 mM and the biomass was determined by measuring the optical density at 600 nm after 24 h of growth at 30° C.
(§4) Abu misincorporation. The valine auxotroph CU505 (33) was grown in the presence of a limiting supply of valine and increasing concentrations of Abu (FIG. 3). […] In contrast, when the valST222P allele was introduced into the chromosome (strain β5498), the yield of cells was diminished in the absence of Abu but increased up to 30% when Abu (0.2 mM) was added.

[4] = tested on: strain β5498 (valS:T222P allele); assay: Growth of valine auxotroph with limiting valine and Abu, valS:T222P; conditions: Abu 0.2 mM; limiting valine 0.02 mM; OD 600 nm, 24 h, 30° C.
Description: as §3, §4

[5] = T222P + Abu (0.2 mM), 24 hours, relative to WT control that lacked Abu

CCC(N)C(=O)O (stereo not drawn) [Abu, α-aminobutyric acid]
Abu incorporated into total protein [1]: 0.0 | Ala incorporated into total protein [1]: 1.0 | Ile incorporated into total protein [1]: 1.0 | Val + Abu incorporated into total protein [1]: 1.0 | Val incorporated into total protein [1]: 1.0 | Abu incorporated into total protein [2, 5]: 0.24 | Ala incorporated into total protein [2, 5]: 0.92 | Ile incorporated into total protein [2, 5]: 1.0 | Val + Abu incorporated into total protein [2, 5]: 0.97 | Val incorporated into total protein [2, 5]: 0.73 | valine in cellular protein replaced by Abu [2]: 24% | valine in cellular protein replaced by Abu ([2]; listed as aminobutyrate): Over 20% | sensitivity of growth to Abu [3]: sensitive | biomass of cells relative to the valine concentration (valine auxotroph CU505): did not change | increase of yield of cells [4]: up to 30%
